Source: patent publication US20250154147A1, “NOVEL AMINE-SUBSTITUTED PHTHALAZINES AND DERIVATIVES AS SOS1 INHIBITORS” (Jazz Pharmaceuticals Ireland Limited, priority 2022, published 2025)
Values belong to the compound of their own block, whether it stands above or below them.

Target: SOS1 binding to KRAS-WT (Homo sapiens (Human), UniProt Q07889)
Experiment: SOS1/KRAS WT HTRF binding assay (FRET-based protein-protein interaction assay)
Conditions: 40 nM GST-KRAS-WT, 40 nM His6-SOS1 exchange domain, at least two independent replicates; for IC50: read-out: SOS1/KRAS WT HTRF Binding assay pIC50 (converted)
Text: The capacity of compounds to inhibit SOS1 binding to KRAS-WT (wild-type) was quantified using a FRET-based protein-protein interaction assay. The assay is based on the transfer of energy between two fluorophores, a donor and an acceptor, when in close proximity. In this instance, the donor is a Europium-conjugated α-GST antibody that binds to GST-tagged KRAS-WT, and the acceptor is an XL665-conJugated α-His6 antibody that binds to His6-tagged SOS1. Binding of SOS1 to KRAS-WT results in an increased fluorescent signal at emission wavelength of 665 nm which can be detected on the EnVision plate reader. Compounds that inhibit binding will reduce the 665 nm signal emitted. Recombinant KRAS-WT protein (40 nM; Human KRAS, aal-188 recombinant protein with N-terminal GST-tag) and SOS1 protein (40 nM; Human SOS1 exchange domain, aa564-1049 with N-terminal 6His-tag) were mixed together in assay buffer (5 mM HEPES pH7.3, 150 mM NaCl, 10 mM EDTA, 5 mM MgCl2, 0.05% BSA, 0.0025% NP-40, 1 mM DTT and 100 mM KF) and incubated at room temperature with a dose response of compound in a 384-well low volume white plate and a final volume of 5 ul. After a 60 minute incubation, 5 ul of 4 nM anti-GST-Eu(K) (Cisbio, France) combined with 20 nM anti-6His-XL665 (Cisbio, France), diluted in assay buffer, was added to the plate. Following a further 4 h incubation at room temperature, time-resolved fluorescence was measured on the EnVision plate reader. DMSO (0.05%) and 10 μM reference compound were used to generate the Max and Min assay signals, respectively. Data was analyzed using a four-parameter logistic model to calculate IC50 values, with at least two independent replicates performed for each compound.

Sequence of SOS1 binding to KRAS-WT (Q07889 564-1049): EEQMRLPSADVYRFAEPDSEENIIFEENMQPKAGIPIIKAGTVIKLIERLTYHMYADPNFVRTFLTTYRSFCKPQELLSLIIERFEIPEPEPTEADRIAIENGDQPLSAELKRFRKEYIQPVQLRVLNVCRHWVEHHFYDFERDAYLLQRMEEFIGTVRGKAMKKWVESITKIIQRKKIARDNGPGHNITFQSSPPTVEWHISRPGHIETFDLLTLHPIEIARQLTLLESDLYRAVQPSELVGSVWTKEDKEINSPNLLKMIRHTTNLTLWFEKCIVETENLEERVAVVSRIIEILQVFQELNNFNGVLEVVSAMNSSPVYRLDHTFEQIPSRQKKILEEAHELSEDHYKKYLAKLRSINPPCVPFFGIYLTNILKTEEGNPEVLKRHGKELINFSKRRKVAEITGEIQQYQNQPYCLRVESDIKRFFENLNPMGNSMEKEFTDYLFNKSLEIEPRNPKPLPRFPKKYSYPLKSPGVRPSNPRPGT

SMILES: Cc1nnc(NC(C)c2cccc(C(F)(F)F)c2)c2cc(O[C@H]3CCOC3)cnc12 (stereo partly drawn) [Compound 9, 8-methyl-3-[(3S)-tetrahydrofuran-3-yl]oxy-N-[1-[3-(trifluoromethyl)phenyl]ethyl]pyrido[2,3-d]pyridazin-5-amine]
SOS1/KRAS WT HTRF Binding assay pIC50: 6.60

SMILES: Cc1nnc(N[C@H](C)c2cccc(C(F)(F)F)c2)c2cn(CC3CC3)c(=O)cc12 [Compound 4, 6-(cyclopropylmethyl)-1-methyl-4-[[(1R)-1-[3-(trifluoromethyl)phenyl]ethyl]amino] pyrido[3,4-d]pyridazin-7-one]
SOS1/KRAS WT HTRF Binding assay pIC50: 6.52

SMILES: CCn1cc2c(N[C@H](C)c3cccc(C(F)(F)F)c3)nnc(C)c2cc1=O [Compound 3, 6-ethyl-1-methyl-4-[[(1R)-1-[3-(trifluoromethyl)phenyl]ethyl]amino] pyrido[3,4-d]pyridazin-7-one]
SOS1/KRAS WT HTRF Binding assay pIC50: 6.46

SMILES: Cc1nnc(N[C@H](C)c2cccc(C(F)(F)F)c2)c2cn(C3CC3)c(=O)cc12 [Compound 13, 6-cyclopropyl-1-methyl-4-[[(1R)-1-[3-(trifluoromethyl)phenyl]ethyl]amino] pyrido[3,4-d]pyridazin-7-one]
SOS1/KRAS WT HTRF Binding assay pIC50: 7.20

SMILES: Cc1nnc(N[C@H](C)c2cccc(C(F)(F)F)c2)c2cn(C3CCCC3)c(=O)cc12 [Compound 2, 6-cyclopentyl-1-methyl-4-[[(1R)-1-[3-(trifluoromethyl)phenyl]ethyl]amino] pyrido[3,4-d]pyridazin-7-one]
SOS1/KRAS WT HTRF Binding assay pIC50: 7.11

SMILES: Cc1nnc(NC(C)c2cccc(C(F)(F)F)c2)c2nc(O[C@H]3CCOC3)ccc12 (stereo partly drawn) [Compound 15, 5-methyl-2-[(3S)-tetrahydrofuran-3-yl]oxy-N-[1-[3-(trifluoromethyl)phenyl]ethyl]pyrido[2,3-d]pyridazin-8-amine]
SOS1/KRAS WT HTRF Binding assay pIC50: 6.17

SMILES: Cc1nnc(N[C@H](C)c2cccc(C(F)F)c2)c2cc(C3=CCCC3)c(=O)n(C)c12 [Compound 11, 3-(cyclopenten-1-yl)-5-[[(1R)-1-[3-(difluoromethyl)phenyl]ethyl]amino]-1,8-dimethyl-pyrido[2,3-d]pyridazin-2-one]
IC50: 178 nM

SMILES: Cc1nnc(N[C@H](C)c2cccc(C(F)(F)F)c2)c2cn(CC3COC3)c(=O)cc12 [Compound 5, 1-methyl-6-(oxetan-3-ylmethyl)-4-[[(1R)-1-[3-(trifluoromethyl)phenyl]ethyl]amino] pyrido[3,4-d]pyridazin-7-one]
SOS1/KRAS WT HTRF Binding assay pIC50: 6.52

SMILES: Cc1nnc(NC(C)c2cccc(C(F)(F)F)c2)c2cn(C3CCCC3)c(=O)cc12 (stereo not shown) [Compound 1, 6-cyclopentyl-1-methyl-4-[1-[3-(trifluoromethyl)phenyl]ethylamino] pyrido[3,4-d]pyridazin-7-one]
SOS1/KRAS WT HTRF Binding assay pIC50: 6.72

SMILES: Cc1nnc(N[C@H](C)c2cccc(C(F)(F)F)c2)c2cc(C3=CCCC3)c(=O)n(C)c12 [Compound 12, 3-(cyclopenten-1-yl)-1,8-dimethyl-5-[[(1R)-1-[3-(trifluoromethyl)phenyl]ethyl]amino] pyrido[2,3-d]pyridazin-2-one]
SOS1/KRAS WT HTRF Binding assay pIC50: 6.96

SMILES: Cc1nnc(N[C@H](C)c2cccc(C(F)(F)F)c2)c2cn(C3CCOC3)c(=O)cc12 (mixture of isomers) [Compound 8, 1-methyl-4-[[rac-(1R)-1-[3-(trifluoromethyl)phenyl]ethyl]amino]-6-tetrahydrofuran-3-yl-pyrido[3,4-d]pyridazin-7-one]
IC50: 234 nM

SMILES: Cc1nnc(N[C@H](C)c2cccc(C(F)(F)F)c2)c2cn(C(C)C)c(=O)cc12 [Compound 7, 6-isopropyl-1-methyl-4-[[(1R)-1-[3-(trifluoromethyl)phenyl]ethyl]amino] pyrido[3,4-d]pyridazin-7-one]
SOS1/KRAS WT HTRF Binding assay pIC50: 7.02

SMILES: Cc1nnc(N[C@H](C)c2cccc(C(F)(F)F)c2)c2cn(CC3(C)COC3)c(=O)cc12 [Compound 6, 1-methyl-6-[(3-methyloxetan-3-yl)methyl]-4-[[(1R)-1-[3-(trifluoromethyl)phenyl]ethyl]amino] pyrido[3,4-d]pyridazin-7-one]
SOS1/KRAS WT HTRF Binding assay pIC50: 6.34

SMILES: Cc1nnc(N[C@H](C)c2cccc(C(F)(F)F)c2)c2cc(O[C@H]3CCOC3)cnc12 [Compound 10, 8-methyl-3-[(3S)-tetrahydrofuran-3-yl]oxy-N-[(1R)-1-[3-(trifluoromethyl)phenyl]ethyl]pyrido[2,3-d]pyridazin-5-amine]
SOS1/KRAS WT HTRF Binding assay pIC50: 6.76

SMILES: Cc1nnc(N[C@H](C)c2cccc(C(F)(F)F)c2)c2cn(C3(C)CC3)c(=O)cc12 (racemic) [Compound 14, 1-methyl-6-(1-methylcyclopropyl)-4-[[rac-(1R)-1-[3-(trifluoromethyl)phenyl]ethyl]amino] pyrido[3,4-d]pyridazin-7-one]
IC50: 58.9 nM

Other lines, results leading:

IC50: 53.7 nM
SMILES: Cc1nnc(N[C@H](C)c2cccc(C(F)F)c2)c2cc(C3CCN(C)CC3)c(=O)n(C)c12 (racemic) [Compound 21, 1,8-dimethyl-3-(1-methyl-4-piperidyl)-5-[[rac-(1R)-1-[3-(difluoromethyl)phenyl]ethyl]amino] pyrido[2,3-d]pyridazin-2-one]

IC50: 93.3 nM
SMILES: Cc1nnc(N[C@H](C)c2cccc(C(F)F)c2)c2cc(C3CCOCC3)c(=O)n(C)c12 (racemic) [Compound 20, 1,8-dimethyl-5-[[rac-(1R)-1-[3-(difluoromethyl)phenyl]ethyl]amino]-3-tetrahydropyran-4-yl-pyrido[2,3-d]pyridazin-2-one]

IC50: 36.3 nM
SMILES: CC(=O)N1CC=C(c2cc3c(N[C@H](C)c4cccc(C(F)(F)F)c4)nnc(C)c3n(C)c2=O)CC1 (racemic) [Compound 19, 3-(1-acetyl-3,6-dihydro-2H-pyridin-4-yl)-1,8-dimethyl-5-[[rac-(1R)-1-[3-(trifluoromethyl)phenyl]ethyl]amino] pyrido[2,3-d]pyridazin-2-one]

SOS1/KRAS WT HTRF Binding assay pIC50: 7.36
SMILES: CC(=O)N1CCCC(c2cc3c(N[C@H](C)c4cccc(C(F)(F)F)c4)nnc(C)c3n(C)c2=O)C1 (stereo partly drawn) [Compound 18, 3-(1-acetyl-3-piperidyl)-1,8-dimethyl-5-[[(1R)-1-[3-(trifluoromethyl)phenyl]ethyl]amino] pyrido[2,3-d]pyridazin-2-one]

SOS1/KRAS WT HTRF Binding assay pIC50: 7.30
SMILES: Cc1nnc(N[C@H](C)c2cccc(C(F)(F)F)c2)c2cc(C3=CCCNC3)c(=O)n(C)c12 [Compound 16, 1,8-dimethyl-3-(1,2,3,6-tetrahydropyridin-5-yl)-5-[[(1R)-1-[3-(trifluoromethyl)phenyl]ethyl]amino] pyrido[2,3-d]pyridazin-2-one]

SOS1/KRAS WT HTRF Binding assay pIC50: 7.24
SMILES: Cc1nnc(N[C@H](C)c2cccc(C(F)(F)F)c2F)c2cc(C3CCNCC3)c(=O)n(C)c12 [Compound 23, 5-[[(1R)-1-[2-fluoro-3-(trifluoromethyl)phenyl]ethyl]amino]-1,8-dimethyl-3-(4-piperidyl)pyrido[2,3-d]pyridazin-2-one]

IC50: 35.5 nM
SMILES: CC(=O)N1CCC(c2cc3c(N[C@H](C)c4cccc(C(F)F)c4)nnc(C)c3n(C)c2=O)CC1 [Compound 22, 3-(1-acetyl-4-piperidyl)-5-[[(1R)-1-[3-(difluoromethyl)phenyl]ethyl]amino]-1,8-dimethyl-pyrido[2,3-d]pyridazin-2-one]
